Legend:
[1] = tested on: anti-Thy 1 glomerulonephritis; test: Glomerular production of fibronectin, PAI-1 and TGF-β1 (ELISA of cultured glomeruli); type: in vivo, Sprague Dawley rats; details: enalapril alone
Experimental: Animal housing and care were in accordance with the NIH Guide for the Care and Use of Laboratory Animals, NIH Publication No. 85-23, 1985. Animals were fed a normal protein diet (22% protein, Teklad No. 86 550, Teklad Premier Laboratory Diets, Madison, Wis., USA). Glomerulonephritis was induced by tail vein injection of 2.25 mg/Kg of the monoclonal anti-Thy 1.1 antibody OX-7 (NCCC, Biovest International Inc, Minneapolis, Minn., USA). OX-7 binds to a Thy 1-like epitope on the surface of mesangial cells causing complement-dependent cell lysis followed by fibrotic tissue repair (Bagchus et al., Lab Invest. 55:680-687 (1986)). Control animals were injected with similar volumes of phosphate-buffered saline (PBS). Groups of 8 rats were assigned and treated as outlined in Table 2. Doses of enalapril above […] in drinking water are maximally effective in this model (Peters et al., Kidney Int. 54:1570-1580 (1998)). […] Fibronectin and PAI-1 synthesis were measured with modified ELISA assays according to published methods ([…] al., Anal Biochem 104:205-214 (1980)). TGF-β1 production of cultured glomeruli was measured after acid-activation using a commercially available ELISA kit (DuoSet®, R&D Systems, Minneapolis, Minn., USA) according to the manufacturer's instructions. Three samples from each rat were analyzed. […] The percent reduction in disease severity in a treated group was calculated as: […]

[2] = tested on: anti-Thy 1 glomerulonephritis; test: Glomerular p-Smad2 (Western blot); type: in vivo, Sprague Dawley rats; details: enalapril alone
Experimental: These experiments were performed on male Sprague Dawley rats (200-250 g) obtained from the Sasco colony of Charles River Laboratories (Wilmington, Mass., USA). Animal housing and care were in accordance with the NIH Guide for the Care and Use of Laboratory Animals, NIH Publication No. 85-23, 1985. Animals were fed a normal protein diet (22% protein, Teklad No. 86 550, Teklad Premier Laboratory Diets, Madison, Wis., USA). Glomerulonephritis was induced by tail vein injection of 2.25 mg/Kg of the monoclonal anti-Thy 1.1 antibody OX-7 (NCCC, Biovest International Inc, Minneapolis, Minn., USA). OX-7 binds to a Thy 1-like epitope on the surface of mesangial cells causing complement-dependent cell lysis followed by fibrotic tissue repair (Bagchus et al., Lab Invest. 55:680-687 (1986)). Control animals were injected with similar volumes of phosphate-buffered saline (PBS). Groups of 8 rats were assigned and treated as outlined in Table 2. […] Bound antibodies were detected by developing the blot in ECL™ Western blotting detection reagents (Amersham Pharmacia Biotech) for 1 min. Quantitation of the bands on autoradiograms was performed using a BIO-RAD GS-700 imaging densitometer. Changes in p-Smad2 levels were determined by correcting for the densitometric intensity of β-actin for each sample. […] The percent reduction in disease severity in a treated group was calculated as: […]

For `CCOC(=O)[C@H](CCc1ccccc1)N[C@@H](C)C(=O)N1CCC[C@H]1C(=O)O` [enalapril], the “reduction of fibronectin production” value [1] was 53% and the “reduction of Smad2 activation (p-Smad2)” value [2] was 36%.
